Measurements published in patent US7538102B2, “Compounds for the treatment of Hepatitis C” (Bristol-Myers Squibb Company, priority 2007, dated 2009).

Tests used:
HCV NS5B = biological target: T1, HCV NS5B (Hepatitis C virus genotype 1b, UniProt Q9WMX2); assay: HCV NS5B RdRp enzyme assay (standard or modified); format: biochemical; details: HCV NS5B RdRp genotype 1b; standard or modified enzyme assay not specified; read-out: IC50
T1 construct: The protein was expressed with an 18 amino acid C-terminal truncation to enhance the solubility; made in house; host or cells: E. coli BL21(DE3)
T1 sequence (Q9WMX2 2420-2992): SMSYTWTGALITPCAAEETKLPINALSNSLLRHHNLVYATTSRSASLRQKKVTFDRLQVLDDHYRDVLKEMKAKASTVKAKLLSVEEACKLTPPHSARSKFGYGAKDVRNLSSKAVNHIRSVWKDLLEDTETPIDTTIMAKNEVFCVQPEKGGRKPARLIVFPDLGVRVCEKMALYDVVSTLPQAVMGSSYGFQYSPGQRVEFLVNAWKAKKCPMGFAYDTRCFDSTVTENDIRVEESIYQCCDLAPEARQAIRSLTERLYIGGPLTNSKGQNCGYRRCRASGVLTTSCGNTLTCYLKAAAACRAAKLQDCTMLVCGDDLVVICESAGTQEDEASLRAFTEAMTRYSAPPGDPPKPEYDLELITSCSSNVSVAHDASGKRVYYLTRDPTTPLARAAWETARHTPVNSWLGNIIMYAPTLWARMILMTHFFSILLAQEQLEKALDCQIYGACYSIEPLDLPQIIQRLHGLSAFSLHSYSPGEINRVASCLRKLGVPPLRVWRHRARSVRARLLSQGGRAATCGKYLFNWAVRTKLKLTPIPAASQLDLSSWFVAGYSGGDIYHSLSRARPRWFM
Experimental: HCV NS5B RdRp cloning, expression, and purification. The cDNA encoding the NS5B protein of HCV, genotype 1b, was cloned into the pET21a expression vector. The protein was expressed with an 18 amino acid C-terminal truncation to enhance the solubility. The E. coli competent cell line BL21(DE3) was used for expression of the protein. Cultures were grown at 37° C. for ˜4 hours until the cultures reached an optical density of 2.0 at 600 nm. The cultures were cooled to 20° C. and induced with 1 mM IPTG. Fresh ampicillin was added to a final concentration of 50 μg/ml and the cells were grown overnight at 20° C.
Cell pellets (3 L) were lysed for purification to yield 15-24 mgs of purified NS5B. The lysis buffer consisted of 20 mM Tris-HCl, pH 7.4, 500 mM NaCl, 0.5% triton X-100, 1 mM DTT, 1mM EDTA, 20% glycerol, 0.5 mg/ml lysozyme, 10 mM MgCl2, 15 ug/ml deoxyribonuclease I, and Complete TM protease inhibitor tablets (Roche). After addition of the lysis buffer, frozen cell pellets were resuspended using a tissue homogenizer. To reduce the viscosity of the sample, aliquots of the lysate were sonicated on ice using a microtip attached to a Branson sonicator. The sonicated lysate was centrifuged at 100,000×g for 1 hr at 4° C. and filtered through a 0.2 μm filter unit (Corning).
The protein was purified using two sequential chromatography steps: Heparin sepharose CL-6B and polyU sepharose 4B (Pharmacia). The chromatography buffers were identical to the lysis buffer but contained no lysozyme, deoxyribonuclease I, MgCl2 or protease inhibitor and the NaCl concentration of the buffer was adjusted according to the requirements for charging the protein onto the column. Each column was eluted with a NaCl gradient which varied in length from 5-50 column volumes depending on the column type. After the final chromatography step, the resulting purity of the enzyme is >90% based on SDS-PAGE analysis. The enzyme was aliquoted and stored at −80° C.
Standard HCV NS5B RdRp enzyme assay. HCV RdRp genotype 1b assays were run in a final volume of 60 μl in 96 well plates (Corning 3600). The assay buffer is composed of 20 mM Hepes, pH 7.5, 2.5 mM KCl, 2.5 mM MgCl2, 1 mM DTT, 1.6 U RNAse inhibitor (Promega N2515), 0.01 mg/ml BSA (Sigma B6917), and 2% glycerol. All compounds were serially diluted (3-fold) in DMSO and diluted further in water such that the final concentration of DMSO in the assay was 2%. HCV RdRp genotype 1b enzyme was used at a final concentration of 28 nM. A polyA template was used at 6 nM, and a biotinylated oligo-dT12 primer was used at 180 nM final concentration. Template was obtained commercially (Amersham 27-4110). Biotinylated primer was prepared by Sigma Genosys. 3H-UTP was used at 0.6 μCi (0.29 μM total UTP). Reactions were initiated by the addition of enzyme, incubated at 30° C. for 60 min, and stopped by adding 25 μl of 50 mM EDTA containing SPA beads (4 μg/pl, Amersham RPNQ 0007). Plates were read on a Packard Top Count NXT after >1 hr incubation at room temperature.
Modified HCV NS5B RdRp enzyme assay. A modified enzyme assay was performed essentially as described for the standard enzyme assay except for the following: The biotinylated oligo dT12 primer was precaptured on streptavidin-coated SPA beads by mixing primer and beads in assay buffer and incubating at room temperature for one hour. Unbound primer was removed after centrifugation. The primer-bound beads were resuspended in 20 mM Hepes buffer, pH 7.5 and used in the assay at final concentrations of 20 nM primer and 0.67 μg/μl beads. Order of addition in the assay: enzyme (1.75 nM) was added to diluted compound followed by the addition of a mixture of template (0.36 nM), 3H-UTP (0.6 μCi, 0.29 μM), and primer-bound beads, to initiate the reaction; concentrations given are final. Reactions were allowed to proceed for 4 hours at 30° C.
IC50 values for compounds were determined using seven different [I]. […]

HCV replicon = HCV replicon FRET / luciferase assay; format: cell-based; details: Hepatitis C virus; HCV replicon cells; 50% reduction in FRET or luciferase activity; read-out: EC50
Experimental: FRET Assay Preparation. The HCV FRET screening assay was performed in 96-well cell culture plates. The FRET peptide (Anaspec, Inc.) (Taliani et al., Anal. Biochem. 1996, 240, 60-67) contains a fluorescence donor, EDANS, near one end of the peptide and an acceptor, DABCYL, near the other end. The fluorescence of the peptide is quenched by […] resonance energy transfer (RET) between the donor and the acceptor, but as the NS3 protease cleaves the peptide the products are released from RET quenching and the fluorescence of the donor becomes apparent. The assay reagent was made as follows: 5× cell Luciferase cell culture lysis reagent from Promega (#E153A) diluted to 1× with dH2O, NaCl added to 150 mM final, the FRET peptide diluted to 20 μM final from a 2 mM stock.
To prepare plates, HCV replicon cells, with or without a Renilla luciferase reporter gene, were trypsinized and plated in a 96-well plate with titrated test compounds added in columns 3 through 12; columns 1 and 2 contained a control compound (HCV control inhibitor), and the bottom row contained cells with DMSO only. The plates were then placed in a CO2 incubator at 37° C.
Assays. Subsequent to addition of the test compounds described above (FRET Assay Preparation), at various times the plate was removed and Alamar blue solution (Trek Diagnostics, #00-100) was added to measure cellular toxicity. After reading in a Cytoflour 4000 instrument (PE Biosystems), plates were rinsed with PBS and then used for FRET assay by the addition of 30 ul of the FRET peptide assay reagent described above (FRET Assay Preparation) per well. The plate was then placed into the Cytoflour 4000 instrument which had been set to 340 excite/490 emission, automatic mode for up to 20 cycles and the plate read in a kinetic mode. Typically, the signal to noise using an endpoint analysis after the reads was at least three-fold. Alternatively, after Alamar blue reading, plates were rinsed with PBS, then used for luciferase assay using the Promega Dual-Glo Luciferase Assay System or the Promega EnduRen Live Cell Substrate assay.
Compound analysis was performed by quantification of the relative HCV replicon inhibition and the relative cytotoxicity values. To calculate cytoxicity values, the average Alamar Blue fluorescence signals from the control wells were set as 100% non-toxic. The individual signals in each of the compound test wells were then divided by the average control signal and multiplied by 100% to determine […]. To calculate the HCV replicon inhibition values, an average background value was obtained from the two wells containing the highest amount of HCV control inhibitor at the end of the assay period. These numbers were similar to those obtained from naive Huh-7 cells. The background numbers were then subtracted from the average signal obtained from the control wells and this number was used as 100% activity. The individual signals in each of the compound test wells were then divided by the averaged control values after background subtraction and multiplied by 100% to determine percent activity. EC50 values were calculated as the concentration which caused a 50% reduction in FRET or luciferase activity. The two numbers generated for the compound plate, percent cytoxicity and percent activity, were used to determine compounds of interest for further analysis.

Row | Structure (SMILES) | IC50 (HCV NS5B) [µM] | EC50 (HCV replicon) [µM]
1 | COc1ccc2c(c1)C1CC1(C(=O)N(C)CC(=O)N1CCOCC1)Cn1c-2c(C2CCCCC2)c2ccc(C(=O)NS(=O)(=O)N(C)C)cc21 (centres unmarked) | 0.003 to 1 | 0.003 to 1
2 | COc1ccc2c(c1)C1CC1(C(=O)N1CCN(c3cnccn3)CC1)Cn1c-2c(C2CCCCC2)c2ccc(C(=O)NS(=O)(=O)C3CC3)cc21 (centres unmarked) | 0.003 to 1 | 0.003 to 1
3 | COc1ccc2c(c1)C1CC1(C(=O)O[C@@H]1C[C@H](C)CC[C@H]1C(C)C)Cn1c-2c(C2CCCCC2)c2ccc(C(=O)NS(=O)(=O)N(C)C)cc21 (some centres unmarked) | 0.003 to 1 | > 1
4 | COc1ccc2c(c1)C1CC1(C(=O)N1CCNC(=O)CC1)Cn1c-2c(C2CCCCC2)c2ccc(C(=O)NS(=O)(=O)N(C)C)cc21 (centres unmarked) | 0.003 to 1 | 0.003 to 1
5 | COc1ccc2c(c1)C1CC1(C(=O)N1CCCN(Cc3ccccc3)CC1)Cn1c-2c(C2CCCCC2)c2ccc(C(=O)NS(=O)(=O)N(C)C)cc21 (centres unmarked) | 0.003 to 1 | 0.003 to 1
6 | COc1ccc2c(c1)C1CC1(C(=O)N1CCCN(C(C)=O)CC1)Cn1c-2c(C2CCCCC2)c2ccc(C(=O)NS(=O)(=O)N(C)C)cc21 (centres unmarked) | 0.003 to 1 | 0.003 to 1
7 | COc1ccc2c(c1)C1CC1(C(=O)N1CCNC(c3ccc(F)cc3)C1)Cn1c-2c(C2CCCCC2)c2ccc(C(=O)NS(=O)(=O)N(C)C)cc21 (centres unmarked) | 0.003 to 1 | 0.003 to 1
8 | COc1ccc(C2CN(C(=O)C34CC3c3cc(OC)ccc3-c3c(C5CCCCC5)c5ccc(C(=O)NS(=O)(=O)N(C)C)cc5n3C4)CCN2)cc1 (centres unmarked) | 0.003 to 1 | 0.003 to 1
9 | COc1ccc2c(c1)C1CC1(C(=O)N1CCNC(c3ccc(Cl)cc3)C1)Cn1c-2c(C2CCCCC2)c2ccc(C(=O)NS(=O)(=O)N(C)C)cc21 (centres unmarked) | 0.003 to 1 | 0.003 to 1
10 | COc1ccc2c(c1)C1CC1(C(=O)N1CCCN(Cc3cccnc3)CC1)Cn1c-2c(C2CCCCC2)c2ccc(C(=O)NS(=O)(=O)N(C)C)cc21 (centres unmarked) | 0.003 to 1 | 0.003 to 1
11 | COc1ccc2c(c1)C1CC1(C(=O)N1CCCN(Cc3cccnc3)CC1)Cn1c-2c(C2CCCCC2)c2ccc(C(=O)NS(=O)(=O)C3CC3)cc21 (centres unmarked) | 0.003 to 1 | 0.003 to 1
12 | COc1ccc2c(c1)C1CC1(C(=O)N1CCC[C@H]1CN1CCCC1)Cn1c-2c(C2CCCCC2)c2ccc(C(=O)NS(=O)(=O)C3CC3)cc21 (some centres unmarked) | 0.003 to 1 | 0.003 to 1
13 | COc1ccc2c(c1)C1CC1(C(=O)N1CCCN(C(=O)OC(C)(C)C)CC1)Cn1c-2c(C2CCCCC2)c2ccc(C(=O)NS(=O)(=O)C(C)C)cc21 (centres unmarked) | 0.003 to 1 | 0.003 to 1
14 | COc1ccc2c(c1)C1CC1(C(=O)N1CCCN(C(=O)OC(C)(C)C)CC1)Cn1c-2c(C2CCCCC2)c2ccc(C(=O)NS(C)(=O)=O)cc21 (centres unmarked) | 0.003 to 1 | 0.003 to 1
15 | COc1ccc2c(c1)C1CC1(C(=O)N1CCN(C)CC1c1ccccc1)Cn1c-2c(C2CCCCC2)c2ccc(C(=O)NS(C)(=O)=O)cc21 (centres unmarked) | 0.003 to 1 | 0.003 to 1
16 | COc1ccc2c(c1)C1CC1(C(=O)N1CCCN(Cc3cccnc3)CC1)Cn1c-2c(C2CCCCC2)c2ccc(C(=O)NS(C)(=O)=O)cc21 (centres unmarked) | 0.003 to 1 | 0.003 to 1
17 | COc1ccc2c(c1)C1CC1(C(=O)N1CCCN(Cc3cccnc3)CC1)Cn1c-2c(C2CCCCC2)c2ccc(C(=O)NS(=O)(=O)N3CCC3)cc21 (centres unmarked) | 0.003 to 1 | 0.003 to 1
18 | COc1ccc2c(c1)C1CC1(C(=O)N1CCCN(C(=O)OC(C)(C)C)CC1)Cn1c-2c(C2CCCCC2)c2ccc(C(=O)NS(=O)(=O)N3CCC3)cc21 (centres unmarked) | 0.003 to 1 | 0.003 to 1
19 | COc1ccc2c(c1)C1CC1(C(=O)N1CCN(C)CC1c1ccccc1)Cn1c-2c(C2CCCCC2)c2ccc(C(=O)NS(=O)(=O)N3CCC3)cc21 (centres unmarked) | 0.003 to 1 | 0.003 to 1
20 | C=CCN1CCN(C(=O)C23CC2c2cc(OC)ccc2-c2c(C4CCCCC4)c4ccc(C(=O)NS(=O)(=O)C(C)C)cc4n2C3)CC1 (centres unmarked) | 0.003 to 1 | 0.003 to 1
21 | COc1ccc2c(c1)C1CC1(C(=O)N1CCN(C)C[C@@H]1c1ccccc1)Cn1c-2c(C2CCCCC2)c2ccc(C(=O)NS(=O)(=O)C(C)C)cc21 (some centres unmarked) | 0.003 to 1 | 0.003 to 1
22 | COc1ccc2c(c1)C1CC1(C(=O)N1CCN(C)C[C@H]1c1ccccc1)Cn1c-2c(C2CCCCC2)c2ccc(C(=O)NS(=O)(=O)C(C)C)cc21 (some centres unmarked) | 0.003 to 1 | 0.003 to 1
23 | COc1ccc2c(c1)C1CC1(C(=O)N1CCN(C)CC1c1ccccc1)Cn1c-2c(C2CCCCC2)c2ccc(C(=O)NS(=O)(=O)N(C)C)cc21 (centres unmarked) [drawing 44] | 0.003 to 1 | 0.003 to 1
24 | COc1ccc2c(c1)C1CC1(C(=O)N1CCN(C)CC1c1ccccc1)Cn1c-2c(C2CCCCC2)c2ccc(C(=O)NS(=O)(=O)C(C)C)cc21 (centres unmarked) [drawing 74] | 0.003 to 1 | 0.003 to 1
25 | COc1ccc2c(c1)C1C[C@]1(C(=O)N1CCN(C)CC1c1ccccc1)Cn1c-2c(C2CCCCC2)c2ccc(C(=O)NS(=O)(=O)C(C)C)cc21 (some centres unmarked) [drawing 78] | 0.003 to 1 | 0.003 to 1
